{"source": "paper PMC6332026", "about": "“Synthesis and Pharmacochemistry of New Pleiotropic Pyrrolyl Derivatives” (Molecules, 2015)", "key": {"[1]": {"system": "carrageenan-induced rat paw edema", "design": "method as in PMID 7714750", "conditions": "dose 0.44 mmol/kg; cited from earlier work"}, "trypsin": {"biological_target": "T1, trypsin (Bos taurus, UniProt P00760)", "T1 construct": "purchased Sigma Chemical, Co. (St. Louis, MO, USA); host or cells: bovine pancreas", "T1 sequence (P00760 24-246)": "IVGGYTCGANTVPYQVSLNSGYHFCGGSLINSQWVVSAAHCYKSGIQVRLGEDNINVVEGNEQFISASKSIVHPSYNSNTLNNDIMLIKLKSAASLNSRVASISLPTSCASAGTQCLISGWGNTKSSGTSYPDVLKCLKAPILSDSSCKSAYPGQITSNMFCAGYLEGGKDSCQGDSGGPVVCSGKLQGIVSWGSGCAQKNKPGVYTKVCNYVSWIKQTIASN", "test": "Inhibition of the proteolytic activity of trypsin", "assay_type": "biochemical", "conditions": "bovine albumin substrate, pH 7.6; read-out: TP IC50 (inhibition of trypsin)", "text": "Trypsin is an enzyme with an active role in inflammation. Thus, we studied the anti-proteolytic ability of the pyrrole derivatives, using salicylic acid as a reference compound. […] Comparing Compounds 2iv and 2v, the insertion of an electron-acceptor substituent (Cl) on the phenyl ring (substituent Ar^2) and the simultaneous increase of the volume of substituent Ar^2 (expressed as molar refractivity) led to an enhancement of the anti-proteolytic activity.\nCarrageenan, type K, was commercially available. Cycloxygenase-2 (COX-2) and interleukin-6 (IL-6) EIA Kit, Item No. 583371 were purchased from Cayman. Trolox was obtained from Aldrich Chemical Co. (Milwaukee, WI, USA). All starting materials were obtained from commercial sources, and they were used without further purification.\nThe tested compounds (concentrations varying from 10 μΜ–100 μΜ in DMSO) were dissolved in a phosphate buffer (0.1 M K2HPO4–NaH2PO4·2H2O, pH = 7.6), and 0.2 mL of trypsin 0.075 mg/mL were added. The mixture was incubated at room temperature for 20 min, and then, 1 mL of bovine albumin (6 g/100 mL) was added. The mixture was incubated at 37 °C for 30 min. The reaction was stopped with the addition of 1 mL of trichloroacetic acid (5% w/w) Separation of the phases followed, with measurement of the supernatants at 280 nm at room temperature. IC50 values were determined."}, "[2]": {"test": "Interaction with the stable free radical DPPH (reducing activity)", "conditions": "DPPH 50 μM", "description": "2,2-Diphenyl-1-picrylhydrazyl (DPPH) is a lipophilic, free, stable radical, which absorbs at 517 nm (violet color). Upon reduction, decolorization is observed that is stoichiometric to the number of received electrons and is representative of the antioxidant ability of compounds. […] This interaction, which indicates their radical scavenging ability in an iron-free system, was measured at 100 and 1000 μM after 20 and 60 min, whereas the final concentration of DPPH was stable at 50 μΜ.\n[…] The absorbance was measured at 517 nm after 20 and 60 min at room temperature."}, "soybean lipoxygenase": {"biological_target": "T2, soybean lipoxygenase (Glycine max, UniProt P08170)", "T2 construct": "purchased Sigma Chemical, Co. (St. Louis, MO, USA)", "T2 sequence (P08170 1-839)": "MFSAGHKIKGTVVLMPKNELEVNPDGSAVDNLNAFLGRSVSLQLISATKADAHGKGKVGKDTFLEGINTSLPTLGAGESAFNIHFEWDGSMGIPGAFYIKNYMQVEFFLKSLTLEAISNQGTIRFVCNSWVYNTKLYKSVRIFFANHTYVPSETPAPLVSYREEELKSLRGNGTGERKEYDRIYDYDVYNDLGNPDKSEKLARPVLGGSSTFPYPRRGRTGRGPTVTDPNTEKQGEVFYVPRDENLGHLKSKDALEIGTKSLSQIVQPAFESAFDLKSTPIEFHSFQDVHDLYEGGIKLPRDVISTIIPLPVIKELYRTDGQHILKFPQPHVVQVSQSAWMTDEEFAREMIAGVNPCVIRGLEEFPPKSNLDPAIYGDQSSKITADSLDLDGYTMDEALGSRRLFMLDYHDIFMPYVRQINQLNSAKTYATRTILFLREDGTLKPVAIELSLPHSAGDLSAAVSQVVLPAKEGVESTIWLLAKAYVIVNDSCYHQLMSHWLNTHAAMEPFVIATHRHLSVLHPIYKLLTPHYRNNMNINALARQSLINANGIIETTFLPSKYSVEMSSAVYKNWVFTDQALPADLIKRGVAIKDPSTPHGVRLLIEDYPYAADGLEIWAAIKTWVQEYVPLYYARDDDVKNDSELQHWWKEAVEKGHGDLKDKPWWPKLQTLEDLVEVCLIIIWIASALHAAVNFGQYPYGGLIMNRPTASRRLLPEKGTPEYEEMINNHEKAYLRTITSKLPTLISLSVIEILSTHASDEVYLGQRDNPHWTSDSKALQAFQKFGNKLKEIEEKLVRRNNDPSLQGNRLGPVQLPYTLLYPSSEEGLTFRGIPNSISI", "test": "Inhibition of soybean lipoxygenase (UV absorbance-based enzyme assay)", "assay_type": "biochemical", "conditions": "pH 9.00, read-out: LOX IC50", "description": "Lipoxygenase catalyzes the first two steps in the metabolism of arachidonic acid to leukotrienes. LTB4 generation is important in the pathogenesis of neutrophil-mediated inflammatory diseases with a marked relation to the severity of cardiovascular diseases, asthma and cancer. We evaluated the synthesized pyrroles for their ability to inhibit soybean LOX by the UV absorbance-based enzyme assay. […] The inhibition of COX-2, as a peroxidase, was determined by a colorimetric assay with the oxidation of N,N,N′,N′-tetramethyl-p-phenylenediamine (TMPD).\nThe tested compounds were dissolved in DMSO, and the final concentration was 100 μΜ. The compounds were incubated at room temperature with sodium linoleate as a substrate (0.1 mL) in a buffer solution of Tris:HCl (pH 9.00) and 0.2 mL of a solution of soybean lipoxygenase."}, "[3]": {"system": "carrageenan-induced rat paw edema", "test": "Inhibition of rat paw edema induced by carrageenan", "assay_type": "in vivo, Fischer 344 rats", "conditions": "Rattus norvegicus, ip; 0.01 mmol/kg body weight, intraperitoneally, 3.5 h; read-out: CPE % inhibition of rat paw edema induced by carrageenan", "description": "The pyrrolyl derivatives, as well as their precursor chalcones were tested in vivo for the inhibition of rat paw edema induced by carrageenan. […] […]. For Compounds 2i, 2iii, 2iv and 2v, we determined their ED50 values. […]. The finding supports the primary idea of this design.\nEdema was induced in the right hind paw of Fischer 344 rats (150–200 g). In the study, both males and females were included, with the exemption of pregnant females. The animals, which have been bred in our laboratory, were housed under standard conditions and received a diet of commercial food pellets and water ad libitum during maintenance. One hour before the onset of the experiment, food and water were removed. The tested compounds (dose 0.01 mmol/kg body weight) were diluted in water with a few drops of Tween 80, and they were administered intraperitoneally simultaneously with the intradermal injection of 0.1 mL 2% of carrageenan in water. The animals were euthanatized 3.5 h after the carrageenan administration. The difference between the weight of injected and uninjected paws was calculated for each animal and was compared to control animals, which were treated with water. Indomethacin was used as a reference compound in 0.01 mmol/kg. The results were expressed as the percent inhibition of the edema (CPE %)."}}, "data": [{"compound": "O=C(c1ccccc1)c1ccc[nH]1", "note": "[2-benzoylpyrrole]", "values": [{"measurement": "inhibition of carrageenan-induced rat paw edema", "setting": "[1]", "value": 34, "unit": "%"}]}, {"compound": "O=C(c1ccccc1)c1cc[nH]c1", "note": "[3-benzoylpyrrole]", "values": [{"measurement": "inhibition of carrageenan-induced rat paw edema", "setting": "[1]", "value": 43, "unit": "%"}]}, {"compound": "O=C(O)c1ccccc1O", "note": "[Salicylic acid, reference compound]", "values": [{"measurement": "IC50", "setting": "trypsin", "value": 100, "unit": "µM"}]}, {"compound": "Cc1ccc(C(=O)c2ccc(CC(=O)O)n2C)cc1", "note": "[Tolmetin, reference compound]", "values": [{"measurement": "RA % (interaction with DPPH)", "setting": "[2]; 100 μM compound, 20 min", "value": 3, "unit": "%"}, {"measurement": "RA % (interaction with DPPH)", "setting": "[2]; 100 μM compound, 60 min", "value": 3, "unit": "%"}, {"measurement": "RA % (interaction with DPPH)", "setting": "[2]; 1000 μM compound, 20 min", "value": 4, "unit": "%"}, {"measurement": "RA % (interaction with DPPH)", "setting": "[2]; 1000 μM compound, 60 min", "value": 9, "unit": "%"}, {"measurement": "IC50", "setting": "soybean lipoxygenase", "value": 190, "unit": "µM"}, {"measurement": "inhibition in vivo at 10 µmol/kg", "setting": "[3]", "value": 76, "unit": "%"}]}]}
